According to patent publication US10160726B2, “Quinolone derivatives as antibacterials” (priority 2014, dated 2018):
≈ marks a conversion by molar mass, not a printed value. Like-named read-outs stand apart in the source and are kept apart here.

Assays:
Assay type in all cases: cell-based
[1] = tested on: P. aeruginosa NB52023-CDK0006 (gyrA T83I, parC S87L); test: microbe, parasite or virus in culture; conditions: Pseudomonas aeruginosa, 20 h, read-out: Antibacterial activity (MIC) NB52023-CDK0006
[2] = tested on: P. aeruginosa NB52023 (efflux deficient K1542, ΔmexX ΔmexB); test: microbe, parasite or virus in culture; conditions: Pseudomonas aeruginosa, 20 h, read-out: Antibacterial activity (MIC) NB52023
[3] = tested on: E. coli NB27177 (efflux deficient CGSC 11430, ΔtolC732::kan); test: microbe, parasite or virus in culture; conditions: Escherichia coli, 20 h, read-out: Antibacterial activity (MIC) NB27177
[4] = tested on: P. aeruginosa NB52019 (wild-type PAO1); test: MIC, broth microdilution (CLSI); conditions: Pseudomonas aeruginosa, read-out: Antibacterial activity (MIC) NB52019
[5] = tested on: S. aureus NB01006-AVR005 (gyrA S84L, grlA S80F, grlB E471K); test: microbe, parasite or virus in culture; conditions: Staphylococcus aureus, 20 h, read-out: Antibacterial activity (MIC) NB01006-AVR005
[6] = tested on: S. aureus ATCC 29213 (NB01001); test: MIC, broth microdilution (CLSI); conditions: Staphylococcus aureus, ATCC29213; S. aureus ATCC 29213; 35° C., 20 hours; read-out: Antibacterial activity (MIC) NB01001
[7] = tested on: E. coli ATCC 25922 (NB27001); test: MIC, broth microdilution (CLSI); conditions: Escherichia coli, ATCC25922; E. coli ATCC 25922; 35° C., 20 hours; read-out: Antibacterial activity (MIC) NB27001
[8] = P. aeruginosa wild-type PAO1, 35° C., 20 hours

Structure (SMILES) | MIC [1] [µg/mL] | MIC [2] [µg/mL] | MIC [3] [µg/mL] | MIC ([4]; PAO1, 20 h) [µg/mL] | MIC [5] [µg/mL] | MIC [6] [µg/mL] | MIC [7] [µg/mL] | MIC [4, 8] [µg/mL]
COc1cc2cc(F)c(N3CC[C@@H]([C@H](C)N)C3)c(C)c2n(C2CC2)c1=O [Example 6, 7-((R)-3-((S)-1-aminoethyl)pyrrolidin-1-yl)-1-cyclopropyl-6-fluoro-3-methoxy-8-methylquinolin-2(1H)-one] | 32 (≈ 89 µM) | 8 (≈ 22.3 µM) | 0.125 (≈ 0.348 µM) | 32 (≈ 89 µM) | 0.5 (≈ 1.39 µM) | 0.125 (≈ 0.348 µM) | 2 (≈ 5.56 µM) | 
COc1cc2cc(F)c(-c3ccc(N)nc3)c(C)c2n(C2CC2)c1=O [Example 7, 7-(6-aminopyridin-3-yl)-1-cyclopropyl-6-fluoro-3-methoxy-8-methylquinolin-2(1H)-one] | > 32 | > 32 | 0.25 (≈ 0.737 µM) | > 32 | 4 (≈ 11.8 µM) | 2 (≈ 5.89 µM) | 32 (≈ 94.3 µM) | 
Cc1c(N2CC[C@@H]([C@H](C)N)C2)c(F)cc2c(-c3cn[nH]c3)cc(=O)n(C3CC3)c12 [Example 18, 7-((R)-3-((S)-1-aminoethyl)pyrrolidin-1-yl)-1-cyclopropyl-6-fluoro-8-methyl-4-(1H-pyrazol-4-yl)quinolin-2(1H)-one] | 16 (≈ 40.5 µM) | 8 (≈ 20.2 µM) | 0.125 (≈ 0.316 µM) | 32 (≈ 80.9 µM) | 0.25 (≈ 0.632 µM) | 0.5 (≈ 1.26 µM) | 32 (≈ 80.9 µM) | 
Cc1c(N2CC[C@@H]([C@H](C)N)C2)c(F)cc2c(-c3ccccc3)cc(=O)n(C3CC3)c12 [Example 19, 7-((R)-3-((S)-1-aminoethyl)pyrrolidin-1-yl)-1-cyclopropyl-6-fluoro-8-methyl-4-phenylquinolin-2(1H)-one] | > 32 | > 32 | 0.5 (≈ 1.23 µM) |  | 0.5 (≈ 1.23 µM) | 0.5 (≈ 1.23 µM) | 32 (≈ 78.9 µM) | > 32
Cc1c(N2CC[C@@H]([C@H](C)N)C2)c(F)cc2c(-c3cc(F)c(O)c(F)c3)cc(=O)n(C3CC3)c12 [Example 20, 7-((R)-3-((S)-1-aminoethyl)pyrrolidin-1-yl)-1-cyclopropyl-4-(3,5-difluoro-4-hydroxyphenyl)-6-fluoro-8-methylquinolin-2(1H)-one] | 16 (≈ 35 µM) | 32 (≈ 69.9 µM) | 0.125 (≈ 0.273 µM) | > 32 | 0.25 (≈ 0.546 µM) | 0.5 (≈ 1.09 µM) | 32 (≈ 69.9 µM) | 
CCOC(=O)/C=C/c1cc(=O)n(C2CC2)c2c(C)c(N3CC[C@@H]([C@H](C)N)C3)c(F)cc12 [Example 21, (E)-ethyl 3-(7-((R)-3-((S)-1-aminoethyl)pyrrolidin-1-yl)-1-cyclopropyl-6-fluoro-8-methyl-2-oxo-1,2-dihydroquinolin-4-yl)acrylate] | 32 (≈ 74.9 µM) | 32 (≈ 74.9 µM) | 0.125 (≈ 0.292 µM) | > 32 | 0.125 (≈ 0.292 µM) | 0.125 (≈ 0.292 µM) | 16 (≈ 37.4 µM) | 
Cc1c(N2CC[C@@H]([C@H](C)N)C2)c(F)cc2c(/C=C/C(=O)O)cc(=O)n(C3CC3)c12 [Example 22, (E)-3-(7-((R)-3-((S)-1-aminoethyl)pyrrolidin-1-yl)-1-cyclopropyl-6-fluoro-8-methyl-2-oxo-1,2-dihydroquinolin-4-yl)acrylic acid] | > 32 | > 32 | 8 (≈ 20 µM) | > 32 | 8 (≈ 20 µM) | 8 (≈ 20 µM) | 32 (≈ 80.1 µM) | 
CCc1cc(=O)n(C2CC2)c2c(C)c(N3CC[C@@H]([C@H](C)N)C3)c(F)cc12 [Example 24, 7-((R)-3-((S)-1-aminoethyl)pyrrolidin-1-yl)-1-cyclopropyl-4-ethyl-6-fluoro-8-methylquinolin-2(1H)-one] | > 32 | > 32 | 0.06 (≈ 0.168 µM) | > 32 | 0.06 (≈ 0.168 µM) | 0.06 (≈ 0.168 µM) | 8 (≈ 22.4 µM) | 
COC(=O)C#Cc1cc(=O)n(C2CC2)c2c(C)c(N3CC[C@@H]([C@H](C)N)C3)c(F)cc12 [Example 26, Methyl 3-(7-((R)-3-((S)-1-aminoethyl)pyrrolidin-1-yl)-1-cyclopropyl-6-fluoro-8-methyl-2-oxo-1,2-dihydroquinolin-4-yl)propiolate] | 32 (≈ 77.8 µM) | 16 (≈ 38.9 µM) | 1 (≈ 2.43 µM) | > 32 | 0.25 (≈ 0.608 µM) | 1 (≈ 2.43 µM) | 32 (≈ 77.8 µM) | 
Cc1c(C#N)c2cc(F)c(N3CC[C@@H]([C@H](C)N)C3)c(C)c2n(C2CC2)c1=O [Example 28, 7-((R)-3-((S)-1-aminoethyl)pyrrolidin-1-yl)-1-cyclopropyl-6-fluoro-3,8-dimethyl-2-oxo-1,2-dihydroquinoline-4-carbonitrile] | 0.5 (≈ 1.36 µM) | 2 (≈ 5.43 µM) | < 0.03 | 16 (≈ 43.4 µM) | < 0.03 | < 0.03 | 2 (≈ 5.43 µM) | 
Cc1c(N2CC[C@H](CN)C2)c(F)cc2c(C#N)cc(=O)n(C3CC3)c12 [Example 29, (R)-7-(3-(aminomethyl)pyrrolidin-1-yl)-1-cyclopropyl-6-fluoro-8-methyl-2-oxo-1,2-dihydroquinoline-4-carbonitrile] | 4 (≈ 11.8 µM) | 2 (≈ 5.88 µM) | 0.03 (≈ 0.0881 µM) | 8 (≈ 23.5 µM) | 0.125 (≈ 0.367 µM) | 0.125 (≈ 0.367 µM) | 1 (≈ 2.94 µM) | 
Cc1c(N2CC[C@@H](CN)C2)c(F)cc2c(C#N)cc(=O)n(C3CC3)c12 [Example 31, (S)-7-(3-(aminomethyl)pyrrolidin-1-yl)-1-cyclopropyl-6-fluoro-8-methyl-2-oxo-1,2-dihydroquinoline-4-carbonitrile] | 4 (≈ 11.8 µM) | 2 (≈ 5.88 µM) | < 0.03 | 8 (≈ 23.5 µM) | 0.06 (≈ 0.176 µM) | 0.06 (≈ 0.176 µM) | 2 (≈ 5.88 µM) | 
Cc1c(N2CCNCC2)c(F)cc2c(C#N)cc(=O)n(C3CC3)c12 [Example 32, 1-cyclopropyl-6-fluoro-8-methyl-2-oxo-7-(piperazin-1-yl)-1,2-dihydroquinoline-4-carbonitrile] | 32 (≈ 98 µM) | 16 (≈ 49 µM) | 0.125 (≈ 0.383 µM) |  | 2 (≈ 6.13 µM) | 4 (≈ 12.3 µM) | 4 (≈ 12.3 µM) | 32 (≈ 98 µM)
CCOC(=O)c1cc(=O)n(C2CC2)c2c(C)c(N3CC[C@@H]([C@H](C)N)C3)c(F)cc12 [Example 35, ethyl 7-((R)-3-((S)-1-aminoethyl)pyrrolidin-1-yl)-1-cyclopropyl-6-fluoro-8-methyl-2-oxo-1,2-dihydroquinoline-4-carboxylate] | 8 (≈ 19.9 µM) | 8 (≈ 19.9 µM) | < 0.03 | 8 (≈ 19.9 µM) | 0.06 (≈ 0.149 µM) | 0.06 (≈ 0.149 µM) | 4 (≈ 9.96 µM) | 
Cc1c(N2CC[C@@H]([C@H](C)N)C2)c(F)cc2c(N)cc(=O)n(C3CC3)c12 [Example 36, 4-amino-7-((R)-3-((S)-1-aminoethyl)pyrrolidin-1-yl)-1-cyclopropyl-6-fluoro-8-methylquinolin-2(1H)-one] | > 16 | 16 (≈ 46.5 µM) | 1 (≈ 2.9 µM) | > 16 | 1 (≈ 2.9 µM) | 2 (≈ 5.81 µM) | 16 (≈ 46.5 µM) | 
Cc1c(N2CC[C@@H]([C@H](C)N)C2)c(F)cc2c(NS(C)(=O)=O)cc(=O)n(C3CC3)c12 [Example 37, N-(7-((R)-3-((S)-1-aminoethyl)pyrrolidin-1-yl)-1-cyclopropyl-6-fluoro-8-methyl-2-oxo-1,2-dihydroquinolin-4-yl)methanesulfonamide] | > 32 | > 32 | 4 (≈ 9.47 µM) | 32 (≈ 75.7 µM) | 16 (≈ 37.9 µM) | 8 (≈ 18.9 µM) | 32 (≈ 75.7 µM) | 
Cc1c(N2CC[C@@H]([C@H](C)N)C2)c(F)cc2c(-c3noc(=O)[nH]3)cc(=O)n(C3CC3)c12 [Example 38, 3-(7-((R)-3-((S)-1-aminoethyl)pyrrolidin-1-yl)-1-cyclopropyl-6-fluoro-8-methyl-2-oxo-1,2-dihydroquinolin-4-yl)-1,2,4-oxadiazol-5(4H)-one] | > 32 | 32 (≈ 77.4 µM) | 2 (≈ 4.84 µM) | > 32 | 4 (≈ 9.67 µM) | 4 (≈ 9.67 µM) | 32 (≈ 77.4 µM) | 
Cc1c(N2CC[C@H](O)C2)c(F)c(F)c2c(CN3CCN(C)CC3)cc(=O)n(C3CC3)c12 [Example 90, (S)-1-cyclopropyl-5,6-difluoro-7-(3-hydroxypyrrolidin-1-yl)-8-methyl-4-((4-methylpiperazin-1-yl)methyl)quinolin-2(1H)-one trifluoro acetic acid] | 32 (≈ 74 µM) | 32 (≈ 74 µM) |  | > 32 | 0.125 (≈ 0.289 µM) | 0.125 (≈ 0.289 µM) | 16 (≈ 37 µM) | 
Cc1c(N2CCC(F)(CN)C2)c(F)cc2cc(CO)c(=O)n(C3CC3)c12 (centres unmarked) [Example 96, 7-(3-(aminomethyl)-3-fluoropyrrolidin-1-yl)-1-cyclopropyl-6-fluoro-3-(hydroxymethyl)-8-methylquinolin-2(1H)-one] | 8 (≈ 22 µM) | 8 (≈ 22 µM) |  | 32 (≈ 88.1 µM) | 1 (≈ 2.75 µM) | 0.5 (≈ 1.38 µM) | 2 (≈ 5.5 µM) | 
COc1c(N2CCC(CN)C2)c(F)cc2ccc(=O)n(C3CC3)c12.O=C(O)C(F)(F)F (centres unmarked) [Example 110, 7-(3-(aminomethyl)pyrrolidin-1-yl)-1-cyclopropyl-6-fluoro-8-methoxyquinolin-2(1H)-one TFA salt] | 32 | 16 |  |  | 0.125 | 0.25 | 4 | > 32
